Measurements from PubChem BioAssay AID1845210 (Molecular Pharmacology Branch, DTP, NCI, 2023).

System: NCI-H226 complex tumor spheroids, viability
Assay: Anticancer human tumor NCI-H226 cell line growth inhibition;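 also: spheroids exposed to compound for 7 days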;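 as to viability, T/C: 100% = DMSO vehicle control viability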
Conditions: for IC50: curve of first compound; for viability, T/C: stronger effect = lower value
Procedure, shortened: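 Complex tumor spheroids combined malignant cells with endothelial cells and mesenchymal stem cells. DNA-damaging drugs and DNA repair inhibitors were tested alone and in combination, at half-log dilutions down from clinical Cmax (top 10 microM if Cmax unknown), 0.25% DMSO final.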

[1] = second compound 1 µM, first compound 0.00949 µM
[2] = second compound 1 µM, first compound 0.03 µM
[3] = second compound 1 µM, first compound 0.0949 µM
[4] = second compound 1 µM, first compound 0.3 µM
[5] = second compound 1 µM, first compound 0.949 µM
[6] = second compound 1 µM, first compound 3 µM
[7] = second compound 3.16 µM, first compound 0.00949 µM
[8] = second compound 3.16 µM, first compound 0.03 µM
[9] = second compound 3.16 µM, first compound 0.0949 µM
[10] = second compound 3.16 µM, first compound 0.3 µM
[11] = second compound 3.16 µM, first compound 0.949 µM
[12] = second compound 3.16 µM, first compound 3 µM
[13] = second compound 10 µM, first compound 0.00949 µM
[14] = second compound 10 µM, first compound 0.03 µM
[15] = second compound 10 µM, first compound 0.0949 µM
[16] = second compound 10 µM, first compound 0.3 µM
[17] = second compound 10 µM, first compound 0.949 µM
[18] = second compound 10 µM, first compound 3 µM
[19] = second compound 31.6 µM, first compound 0.00949 µM
[20] = second compound 31.6 µM, first compound 0.03 µM
[21] = second compound 31.6 µM, first compound 0.0949 µM
[22] = second compound 31.6 µM, first compound 0.3 µM
[23] = second compound 31.6 µM, first compound 0.949 µM
[24] = second compound 31.6 µM, first compound 3 µM
[25] = second compound 100 µM, first compound 0.00949 µM
[26] = second compound 100 µM, first compound 0.03 µM
[27] = second compound 100 µM, first compound 0.0949 µM
[28] = second compound 100 µM, first compound 0.3 µM
[29] = second compound 100 µM, first compound 0.949 µM
[30] = second compound 100 µM, first compound 3 µM

Row | SMILES | IC50 (second compound 1 µM) | IC50 (second compound 3.16 µM) | IC50 (second compound 10 µM) | IC50 (second compound 31.6 µM) | IC50 (second compound 100 µM) | viability, T/C [3] | viability, T/C [4] | viability, T/C [5] | viability, T/C [6] | viability, T/C [9] | viability, T/C [10] | viability, T/C [11] | viability, T/C [12] | viability, T/C [15] | viability, T/C [16] | viability, T/C [17] | viability, T/C [18] | viability, T/C [21] | viability, T/C [22] | viability, T/C [23] | other results
1 | CNCc1ccc(-c2cc(-c3nc(-c4ccc(S(=O)(=O)C(C)C)cc4)cnc3N)on2)cc1 + Cn1nnc2c(C(N)=O)ncn2c1=O | 756 nM | 717 nM | 755 nM | 1030 nM | 1370 nM | 138% | 140% | 30.7% | 0.26% | 127% | 134% | 27.6% | 0.51% | 131% | 128% | 31.8% | 0.23% | 144% | 123% | 53.7% | viability, T/C [1]: 110%; viability, T/C [2]: 125%; viability, T/C [7]: 96.1%; viability, T/C [8]: 119%; viability, T/C [13]: 117%; viability, T/C [14]: 117%; viability, T/C [19]: 110%; viability, T/C [20]: 117%; viability, T/C [24]: 1.75%; viability, T/C [25]: 119%; viability, T/C [26]: 125%; viability, T/C [27]: 123%; viability, T/C [28]: 114%; viability, T/C [29]: 73.3%; viability, T/C [30]: 0.35%
2 | Cc1sc2c(c1C)C(c1ccc(Cl)cc1)=NC(CC(=O)Nc1ccc(O)cc1)c1nnc(C)n1-2 (stereo not given) + Cn1nnc2c(C(N)=O)ncn2c1=O | 959 nM | 808 nM | 1000 nM | 1270 nM | 1570 nM | 74.9% | 68.4% | 48.8% | 40.3% | 81.1% | 63.2% | 49.4% | 39.6% | 76.8% | 66.4% | 46.8% | 42.5% | 70.2% | 71% | 52% | viability, T/C [1]: 83.4%; viability, T/C [2]: 85%; viability, T/C [7]: 79.2%; viability, T/C [8]: 78.7%; viability, T/C [13]: 90.6%; viability, T/C [14]: 78.3%; viability, T/C [19]: 87.1%; viability, T/C [20]: 80.2%; viability, T/C [24]: 38.5%; viability, T/C [25]: 92.7%; viability, T/C [26]: 80.2%; viability, T/C [27]: 84.8%; viability, T/C [28]: 67.8%; viability, T/C [29]: 55.4%; viability, T/C [30]: 42.5%
3 | Cn1ncnc1[C@H]1c2n[nH]c(=O)c3cc(F)cc(c23)N[C@@H]1c1ccc(F)cc1 + Cn1nnc2c(C(N)=O)ncn2c1=O | > 3000 nM | > 3000 nM | > 3000 nM | > 3000 nM | > 3000 nM | 99.4% | 91.2% | 85.8% | 97.8% | 94.8% | 85.6% | 93.1% | 105% | 86.8% | 88.6% | 89.5% | 97.5% | 96.4% | 91.8% | 82.3% | viability, T/C [1]: 101%; viability, T/C [2]: 103%; viability, T/C [7]: 105%; viability, T/C [8]: 55.1%; viability, T/C [13]: 108%; viability, T/C [14]: 89.9%; viability, T/C [19]: 101%; viability, T/C [20]: 95.2%; viability, T/C [24]: 90.7%; viability, T/C [25]: 106%; viability, T/C [26]: 108%; viability, T/C [27]: 95.8%; viability, T/C [28]: 87.1%; viability, T/C [29]: 100%; viability, T/C [30]: 93.5%
4 | O=C(c1cc(Cc2n[nH]c(=O)c3ccccc23)ccc1F)N1CCN(C(=O)C2CC2)CC1 + Cn1nnc2c(C(N)=O)ncn2c1=O | > 30000 nM | > 30000 nM | > 30000 nM | > 30000 nM | > 30000 nM | 99.9% | 99.8% | 107% | 104% | 105% | 96.7% | 105% | 95.4% | 112% | 104% | 95.1% | 101% | 98.3% | 101% | 110% | viability, T/C (second compound 1 µM, first compound 9.49 µM): 99.2%; viability, T/C (second compound 1 µM, first compound 30 µM): 86.4%; viability, T/C (second compound 3.16 µM, first compound 9.49 µM): 81.9%; viability, T/C (second compound 3.16 µM, first compound 30 µM): 80.3%; viability, T/C (second compound 10 µM, first compound 9.49 µM): 84.6%; viability, T/C (second compound 10 µM, first compound 30 µM): 77.3%; viability, T/C [24]: 95.1%; viability, T/C (second compound 31.6 µM, first compound 9.49 µM): 84.6%; viability, T/C (second compound 31.6 µM, first compound 30 µM): 82%; viability, T/C [27]: 114%; viability, T/C [28]: 113%; viability, T/C [29]: 125%; viability, T/C [30]: 99.3%; viability, T/C (second compound 100 µM, first compound 9.49 µM): 97.8%; viability, T/C (second compound 100 µM, first compound 30 µM): 80.5%
